Measured values reported in US20130029983A1, “AMINOTHIENOPYRIDAZINE INHIBITORS OF TAU ASSEMBLY” (priority 2009, published 2013).
Read-outs that look alike come from different tables or passages of the source.

How the values were obtained:
K18PL tau = target: T1, K18PL tau (Homo sapiens, UniProt P10636, P618L); assay: Heparin-induced K18PL tau fibrillization assay monitored by ThT fluorescence; assay type: biochemical; conditions: for Emax: read-out: K18PL (ThT) maximal percent inhibition achieved in the assay
T1 construct: (K18PL; amino acids 244-369); made in house
T1 sequence (P10636 561-686 P618L): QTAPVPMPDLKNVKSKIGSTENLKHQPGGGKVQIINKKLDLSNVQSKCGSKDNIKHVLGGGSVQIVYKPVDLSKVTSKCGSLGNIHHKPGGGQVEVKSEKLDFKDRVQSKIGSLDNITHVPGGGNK
Outline: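 K18PL (30 μM stock, with 0.24 μM Alexa Red-labeled K18PL) plus 40 μM heparin and compound, fibrillized 6 h at 37 °C. Fibrils read by ThT (12.5 μM final, in 100 mM glycine pH 8.5, 1 h RT), ex 450/em 510 nm. Percent inhibition scaled between DMSO wells and non-fibrillizing K18 KD control wells.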

[1] = Full PK analysis and oral administration, brain and plasma levels; assay type: in vivo, mice; conditions: for half-life: 2 mg/kg, full PK analysis, FIG. 6A
Experimental: FIG. 6. (A) Brain and plasma level of F4 (CNDR-51362) after i.v. administration at 2 mg/Kg; (B) Brain and plasma level of F4 (CNDR-51362) after oral administration at 5 mg/Kg; (C) Brain and plasma level of F3 (CNDR-51349) after oral administration at 5 mg/Kg
Test compounds underwent preliminary evaluations of brain penetration, in which 5 mg/Kg of each compound was administered intraperitoneally (i.p.) to a group of three normal mice; drug levels in brain and plasma were determined at a single time-point (1 h) by LC-MS/MS using pre-validated calibration curves. […] However, both esters appeared to have relatively short half-lives in plasma, as indicated by the limited amount of parent drug detected after 1 h from administration of the compounds. […] CNDR-51362 was selected for full PK analysis in which brain and plasma drug levels were determined at six time points (i.e., 30 min, 1 h, 2 h, 4 h, 8 h, and 16 h). The results from this experiment, illustrated in FIG. 6A, confirmed that the total B/P exposure ratio over 16 h is 1.6. […] Finally, in order to investigate the potential for ATPZ congeners to be orally administered, we evaluated brain and plasma level of CNDR-51362 and CNDR-51349 after oral administration of 5 mg/Kg.
Brain tissue was homogenized in 10 mM ammonium acetate, pH 5.7 (1:2; w/v) using a handheld sonic homogenizer. Plasma was obtained from blood that was collected into a 1.5 mL tube containing 0.5M EDTA solution and subjected to centrifugation for 10 min. at 4500 g at 4° C. Aliquots (50 μL) of brain homogenate or plasma were mixed with 0.2 mL of acetonitrile, centrifuged at 15,000 g, and the resulting supernatants were used for subsequent LC-MS/MS analysis. The LC-MS/MS system was comprised of an Aquity HPLC and a TQ MS that was controlled using MassLynx software (Waters Corporation, Milford, Mass., USA). Compounds were detected using multiple reaction monitoring (MRM) of their specific collision-induced ion transitions. Samples (5 μL) were separated on an Aquity BEH C18 column (1.7 μm, 2.1×50 mm) at 35° C. Operation was in positive electrospray ionization mode, with mobile phase A of 0.1% (v/v) formic acid, and B of either acetonitrile or methanol with 0.1% (v/v) formic acid at a flow rate of 0.6 mL/min using a gradient from 5% to 95% B over two min., followed by wash and re-equilibration steps. The MS was operated with a desolvation temperature of 450° C. and a source temperature of 150° C. Desolvation and source nitrogen gas flows were 900 L/hr and 50 L/hr, respectively. Source and MS/MS voltages were optimized for each compound using the MassLynx auto tune utility. Standard curves were generated for each compound from brain homogenate and plasma samples that had compound added at 4, 40, 400 and 4000 ng/mL and extracted as above. Peak areas were plotted against concentration and a 1/x weighted linear regression curve was used to quantify the tissue-derived samples using the average peak area from triplicate injections.

Aβ(1-42) = target: T2, Aβ(1-42) (Homo sapiens, UniProt P05067); assay: Aβ(1-42) fibrillization assay (ThT); assay type: biochemical; conditions: Table 3; highest tested concentration (80 μM); read-out: Aβ42 ThT Assay % Inhib.
T2 construct: Synthetic Aβ(1-42) peptide (rPeptide); purchased rPeptide
T2 sequence (P05067 672-713 limits assumed): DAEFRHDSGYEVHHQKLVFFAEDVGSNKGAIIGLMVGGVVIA

[2] = Table 5, read-out: K18PL (ThT) IC50 value

IC50 (K18PL tau; [2]) [µM] | Emax (K18PL tau; Table 5) [%] | Kp at 16 h ([1]; mouse, brain and plasma, iv, over 16 h, six time points, FIG. 6A (i.v. 2 mg/Kg), read-out: Total brain-to-plasma (B/P) AUC exposure ratio) | half-life ([1]; mouse, brain, iv, read-out: Elimination half-life in the brain (converted)) [h] | half-life ([1]; mouse, plasma, iv, read-out: Elimination half-life in plasma (converted)) [h] | bioavailability ([1]; mouse, plasma AUC after oral 5 mg/Kg versus i.v. 2 mg/Kg) [%] | Brain concentration after oral administration ([1]; oral 5 mg/Kg, FIGS. 6B and 6C, 5 mg/kg) | inhibition at 80 µM (K18PL tau; Table 3, highest tested concentration (80 μM), read-out: Tau ThT Assay % Inhib.) [%] | IC50 (K18PL tau; Table 3, logarithm of IC50, K18PL tau ThT fluorescence inhibition, NC = not calculated due to insufficient activity, read-out: Tau ThT Assay Log IC50 (converted)) [µM] | inhibition at 80 µM (Aβ(1-42)) [%] | melting point [°C] | Structure (SMILES)
4.6 | 87 | 1.6 | ~9.5 | ~7.4 | ~64 | significant brain concentrations |  |  |  |  | Nc1scc2c(C(=O)NC3CC3)nn(-c3ccc(Cl)cc3)c(=O)c12 [CNDR-51362, 5-Amino-3-(4-chlorophenyl)-N-cyclopropyl-4-oxo-3,4-dihydrothieno[3,4-d]pyridazine-1-carboxamide]
3.1 | 71 |  |  |  |  |  | 84 | 3.98 | 41 | 189 to 191 | CCOC(=O)c1nn(-c2ccc(Cl)cc2)c(=O)c2c(N)scc12 [Compound 17, Ethyl 5-amino-3-(4-chlorophenyl)-4-oxo-3,4-dihydrothieno[3,4-d]pyridazine-1-carboxylate]
